Inhibition and IC50 data for 12 compounds are collected here from ChEMBL document CHEMBL1142734, “Biological properties of D- and L-1-deoxyazasugars” (J Med Chem, 2005).

Assay [1] concerns the target Maltase-glucoamylase (Homo sapiens) (UniProt O43451). As to conditions: 1000 uM.
The nature of assay [2]: Inhibitory concentration against alpha-galactosidase of coffee bean. Set-up: species or system Coffea arabica.
Assay [3] has as its target T1, Alpha-galactosidase A (Homo sapiens) (UniProt P06280).
T1 sequence (whole entry): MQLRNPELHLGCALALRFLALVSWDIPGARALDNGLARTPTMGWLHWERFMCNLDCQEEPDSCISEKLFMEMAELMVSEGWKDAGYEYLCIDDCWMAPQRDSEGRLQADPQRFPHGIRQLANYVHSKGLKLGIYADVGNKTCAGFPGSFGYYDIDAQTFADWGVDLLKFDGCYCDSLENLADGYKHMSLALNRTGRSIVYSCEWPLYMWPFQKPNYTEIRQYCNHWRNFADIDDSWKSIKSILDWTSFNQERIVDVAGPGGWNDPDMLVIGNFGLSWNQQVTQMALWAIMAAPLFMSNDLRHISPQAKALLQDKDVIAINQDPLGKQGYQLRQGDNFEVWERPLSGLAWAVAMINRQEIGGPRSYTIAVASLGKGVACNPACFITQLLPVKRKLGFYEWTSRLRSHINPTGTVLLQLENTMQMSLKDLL
As to conditions: 1000 uM.

Assay [4] concerns the target T2, Cytosolic beta-glucosidase (Homo sapiens) (UniProt Q9H227).
T2 sequence (whole entry): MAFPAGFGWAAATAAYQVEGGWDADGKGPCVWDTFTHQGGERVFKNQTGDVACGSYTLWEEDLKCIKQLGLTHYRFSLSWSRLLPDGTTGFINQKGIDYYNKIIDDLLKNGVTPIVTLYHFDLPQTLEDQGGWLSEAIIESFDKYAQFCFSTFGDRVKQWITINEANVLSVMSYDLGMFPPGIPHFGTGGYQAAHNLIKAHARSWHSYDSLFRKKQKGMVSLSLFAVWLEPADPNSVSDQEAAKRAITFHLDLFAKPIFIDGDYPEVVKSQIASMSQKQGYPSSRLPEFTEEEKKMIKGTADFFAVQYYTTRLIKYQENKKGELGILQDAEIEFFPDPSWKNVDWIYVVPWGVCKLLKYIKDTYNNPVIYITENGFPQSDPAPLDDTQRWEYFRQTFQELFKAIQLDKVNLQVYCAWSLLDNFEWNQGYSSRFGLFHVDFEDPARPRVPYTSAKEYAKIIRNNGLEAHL
Conditions: 1000 uM.

For assay [5], the target named is T3, Beta-mannosidase (Homo sapiens) (UniProt O00462).
T3 sequence (whole entry): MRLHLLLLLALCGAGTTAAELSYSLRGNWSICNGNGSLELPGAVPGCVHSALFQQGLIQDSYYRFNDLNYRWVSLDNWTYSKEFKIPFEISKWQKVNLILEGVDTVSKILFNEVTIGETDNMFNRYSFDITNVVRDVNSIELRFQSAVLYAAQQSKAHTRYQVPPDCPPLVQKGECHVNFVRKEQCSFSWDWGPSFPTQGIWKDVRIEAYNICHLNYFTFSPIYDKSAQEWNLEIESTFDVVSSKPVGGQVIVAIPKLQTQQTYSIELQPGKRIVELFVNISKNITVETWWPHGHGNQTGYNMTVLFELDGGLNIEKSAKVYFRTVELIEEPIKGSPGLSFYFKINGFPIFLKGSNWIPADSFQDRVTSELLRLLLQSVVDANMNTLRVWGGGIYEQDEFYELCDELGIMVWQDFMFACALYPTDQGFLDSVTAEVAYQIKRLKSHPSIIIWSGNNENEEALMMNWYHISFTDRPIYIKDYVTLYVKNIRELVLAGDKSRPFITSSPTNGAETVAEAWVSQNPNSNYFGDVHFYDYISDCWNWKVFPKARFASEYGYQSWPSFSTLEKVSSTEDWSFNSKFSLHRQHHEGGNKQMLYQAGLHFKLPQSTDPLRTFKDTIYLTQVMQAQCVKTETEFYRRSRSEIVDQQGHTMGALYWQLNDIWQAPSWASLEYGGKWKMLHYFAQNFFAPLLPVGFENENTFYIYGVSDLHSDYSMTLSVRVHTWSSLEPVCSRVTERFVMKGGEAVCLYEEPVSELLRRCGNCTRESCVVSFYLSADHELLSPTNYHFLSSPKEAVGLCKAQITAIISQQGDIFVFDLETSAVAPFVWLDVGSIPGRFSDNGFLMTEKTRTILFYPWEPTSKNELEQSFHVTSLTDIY
The experiment in a line: Percent inhibition of human beta-mannosidase at 1000 uM.

Assay [6] concerns the target T4, Lysosomal alpha-mannosidase (Homo sapiens) (UniProt O00754).
T4 sequence (whole entry): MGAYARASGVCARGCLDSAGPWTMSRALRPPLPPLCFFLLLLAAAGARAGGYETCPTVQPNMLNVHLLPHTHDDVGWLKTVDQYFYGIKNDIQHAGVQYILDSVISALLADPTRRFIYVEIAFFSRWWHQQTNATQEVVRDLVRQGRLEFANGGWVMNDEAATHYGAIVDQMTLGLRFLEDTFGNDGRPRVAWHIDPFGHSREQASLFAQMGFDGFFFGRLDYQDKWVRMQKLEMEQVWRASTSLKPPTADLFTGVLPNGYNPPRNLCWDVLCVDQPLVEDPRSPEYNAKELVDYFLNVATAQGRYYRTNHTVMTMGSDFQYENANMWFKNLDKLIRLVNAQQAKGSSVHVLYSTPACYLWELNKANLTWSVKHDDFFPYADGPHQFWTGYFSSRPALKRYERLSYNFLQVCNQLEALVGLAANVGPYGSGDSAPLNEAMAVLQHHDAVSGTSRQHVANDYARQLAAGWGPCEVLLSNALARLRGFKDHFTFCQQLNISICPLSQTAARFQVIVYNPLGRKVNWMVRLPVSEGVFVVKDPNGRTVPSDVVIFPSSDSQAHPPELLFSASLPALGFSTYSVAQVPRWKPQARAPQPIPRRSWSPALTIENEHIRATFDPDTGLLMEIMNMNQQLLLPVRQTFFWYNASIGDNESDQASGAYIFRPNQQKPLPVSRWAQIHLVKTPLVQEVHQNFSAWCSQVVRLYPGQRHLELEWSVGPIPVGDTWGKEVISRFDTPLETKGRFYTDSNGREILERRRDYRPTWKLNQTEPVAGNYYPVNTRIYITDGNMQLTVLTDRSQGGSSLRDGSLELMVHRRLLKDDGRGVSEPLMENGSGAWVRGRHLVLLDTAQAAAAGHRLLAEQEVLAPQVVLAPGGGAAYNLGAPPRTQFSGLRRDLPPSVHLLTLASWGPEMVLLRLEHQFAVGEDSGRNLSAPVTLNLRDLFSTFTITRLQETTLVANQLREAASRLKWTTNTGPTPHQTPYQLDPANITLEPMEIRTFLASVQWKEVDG
Kind of assay: Percent inhibition of human alpha-mannosidase at 1000 uM.

Chain of Maltase-glucoamylase (Homo sapiens) (O43451 whole entry, looked up): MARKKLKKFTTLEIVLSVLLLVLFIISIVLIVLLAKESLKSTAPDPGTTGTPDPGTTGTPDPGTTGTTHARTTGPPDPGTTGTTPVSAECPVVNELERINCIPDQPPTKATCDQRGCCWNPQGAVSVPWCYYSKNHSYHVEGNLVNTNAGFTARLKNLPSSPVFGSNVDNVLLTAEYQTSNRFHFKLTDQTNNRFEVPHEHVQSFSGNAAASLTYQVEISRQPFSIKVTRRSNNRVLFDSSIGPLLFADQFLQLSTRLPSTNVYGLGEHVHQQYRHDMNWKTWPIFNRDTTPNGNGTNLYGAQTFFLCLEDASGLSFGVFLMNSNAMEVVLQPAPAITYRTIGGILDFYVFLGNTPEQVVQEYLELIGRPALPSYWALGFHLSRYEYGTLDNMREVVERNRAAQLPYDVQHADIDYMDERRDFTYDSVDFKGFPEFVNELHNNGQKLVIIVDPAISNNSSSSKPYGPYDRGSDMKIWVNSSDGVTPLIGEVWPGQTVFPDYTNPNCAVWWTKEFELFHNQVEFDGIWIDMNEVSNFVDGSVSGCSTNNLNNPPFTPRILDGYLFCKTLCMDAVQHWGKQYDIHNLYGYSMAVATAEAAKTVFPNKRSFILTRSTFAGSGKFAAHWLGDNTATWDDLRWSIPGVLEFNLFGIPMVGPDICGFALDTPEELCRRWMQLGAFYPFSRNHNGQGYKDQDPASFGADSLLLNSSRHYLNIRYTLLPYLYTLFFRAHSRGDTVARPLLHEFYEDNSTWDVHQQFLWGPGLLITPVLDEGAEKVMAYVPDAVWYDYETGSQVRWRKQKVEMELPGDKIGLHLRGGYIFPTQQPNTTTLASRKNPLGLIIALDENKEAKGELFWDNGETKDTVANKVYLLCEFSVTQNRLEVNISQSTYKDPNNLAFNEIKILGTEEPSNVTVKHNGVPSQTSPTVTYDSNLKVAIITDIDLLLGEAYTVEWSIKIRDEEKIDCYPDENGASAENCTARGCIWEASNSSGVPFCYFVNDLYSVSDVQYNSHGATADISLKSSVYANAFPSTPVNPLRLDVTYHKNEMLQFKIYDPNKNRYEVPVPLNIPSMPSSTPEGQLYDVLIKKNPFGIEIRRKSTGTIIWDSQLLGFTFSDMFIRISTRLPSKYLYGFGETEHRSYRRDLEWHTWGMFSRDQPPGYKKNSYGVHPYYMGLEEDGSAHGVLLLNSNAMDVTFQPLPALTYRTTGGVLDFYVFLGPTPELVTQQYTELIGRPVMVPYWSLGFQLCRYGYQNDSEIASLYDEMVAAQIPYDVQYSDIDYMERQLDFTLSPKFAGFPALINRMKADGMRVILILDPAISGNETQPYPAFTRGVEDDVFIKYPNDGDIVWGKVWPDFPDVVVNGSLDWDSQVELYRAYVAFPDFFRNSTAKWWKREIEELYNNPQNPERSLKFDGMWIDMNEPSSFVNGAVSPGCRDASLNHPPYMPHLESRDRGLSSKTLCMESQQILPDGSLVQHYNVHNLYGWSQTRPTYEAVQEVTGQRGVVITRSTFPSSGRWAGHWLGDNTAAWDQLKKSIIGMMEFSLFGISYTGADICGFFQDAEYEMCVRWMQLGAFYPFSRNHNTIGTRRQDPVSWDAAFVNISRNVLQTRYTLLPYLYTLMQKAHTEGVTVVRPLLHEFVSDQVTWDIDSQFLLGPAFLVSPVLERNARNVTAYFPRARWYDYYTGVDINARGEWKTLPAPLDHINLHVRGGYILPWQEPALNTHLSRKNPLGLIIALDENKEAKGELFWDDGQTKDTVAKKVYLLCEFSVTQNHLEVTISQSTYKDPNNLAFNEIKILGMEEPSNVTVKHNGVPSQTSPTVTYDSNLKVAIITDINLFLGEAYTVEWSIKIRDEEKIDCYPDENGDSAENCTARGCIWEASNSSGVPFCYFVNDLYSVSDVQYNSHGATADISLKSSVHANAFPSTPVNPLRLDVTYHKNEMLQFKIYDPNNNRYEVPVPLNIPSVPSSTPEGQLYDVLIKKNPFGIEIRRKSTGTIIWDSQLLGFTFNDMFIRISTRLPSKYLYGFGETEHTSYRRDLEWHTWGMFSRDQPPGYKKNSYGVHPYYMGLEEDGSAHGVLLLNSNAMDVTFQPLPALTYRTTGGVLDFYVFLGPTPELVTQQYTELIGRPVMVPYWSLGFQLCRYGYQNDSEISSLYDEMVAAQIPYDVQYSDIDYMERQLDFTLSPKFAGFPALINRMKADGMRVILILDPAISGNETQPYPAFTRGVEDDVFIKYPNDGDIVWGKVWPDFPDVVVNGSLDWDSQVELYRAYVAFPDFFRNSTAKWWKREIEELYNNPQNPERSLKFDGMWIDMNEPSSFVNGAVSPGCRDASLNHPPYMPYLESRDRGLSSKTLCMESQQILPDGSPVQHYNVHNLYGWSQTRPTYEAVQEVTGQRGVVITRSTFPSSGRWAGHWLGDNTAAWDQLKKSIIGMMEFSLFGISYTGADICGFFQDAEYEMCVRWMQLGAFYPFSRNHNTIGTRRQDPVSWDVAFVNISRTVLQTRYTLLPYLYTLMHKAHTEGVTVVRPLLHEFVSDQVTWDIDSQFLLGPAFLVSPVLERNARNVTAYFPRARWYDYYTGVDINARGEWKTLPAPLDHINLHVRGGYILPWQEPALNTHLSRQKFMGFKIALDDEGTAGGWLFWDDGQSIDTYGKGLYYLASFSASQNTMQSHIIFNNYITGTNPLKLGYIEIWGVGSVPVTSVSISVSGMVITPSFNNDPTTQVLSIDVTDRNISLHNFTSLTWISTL

In general, inhibition refers to the percentage by which the read-out fell short of the control. High values mean strong suppression, low ones little suppression. What is called IC50 is the concentration that inhibits the measured activity by half. A low value points to inhibition by little substance. For the compound `OC[C@@H]1NC[C@@H](O)[C@@H](O)[C@H]1O`, the inhibition in assay [1], in assay [3], in assay [4] and in assay [5] was less than 50% each time. In addition, in assay [2], the concentration for half-maximal inhibition (IC50) is 290 µM.
`OC[C@H]1NC[C@@H](O)[C@H](O)[C@H]1O`: the inhibition in assay [1], in assay [6] and in assay [5] was less than 50% throughout. Besides, in assay [2], the concentration for half-maximal inhibition (IC50) stood at 67 µM.
Take `OC[C@H]1NC[C@H](O)[C@@H](O)[C@H]1O`: the inhibition in assay [1], in assay [4], in assay [6] and in assay [5] was less than 50% throughout. Moreover, the IC50 in assay [2] came out at 0.003 µM.
`OC[C@@H]1NC[C@@H](O)[C@H](O)[C@H]1O`: the inhibition in assay [1], in assay [3], in assay [4], in assay [6] and in assay [5] was less than 50% in each case.
Consider `OC[C@H]1NC[C@H](O)[C@H](O)[C@@H]1O`, for which the inhibition in assay [1], in assay [3], in assay [4], in assay [6] and in assay [5] was less than 50% each time. In addition, the half-maximal inhibitory concentration (IC50) in assay [2] is 260 µM.
In the case of `OC[C@@H]1NC[C@H](O)[C@@H](O)[C@@H]1O`, the inhibition in assay [1], in assay [3], in assay [4], in assay [6] and in assay [5] was less than 50% throughout.
As for `OC[C@H]1NC[C@H](O)[C@@H](O)[C@@H]1O` [DUVOGLUSTAT], half-maximal inhibition in assay [2] (IC50) required 880 µM. Besides, the inhibition in assay [3], in assay [6] and in assay [5] was less than 50% throughout.
As for `OC[C@H]1NC[C@@H](O)[C@@H](O)[C@@H]1O` [DEOXYMANNOJIRIMYCIN], the inhibition in assay [1], in assay [3], in assay [4], in assay [6] and in assay [5] was less than 50% throughout.
For the compound `OC[C@H]1NC[C@H](O)[C@H](O)[C@H]1O`, the inhibition in assay [1], in assay [4], in assay [6] and in assay [5] was less than 50% in each case. The 50% inhibitory concentration (IC50) in assay [2] came to 160 µM.
`OC[C@@H]1NC[C@@H](O)[C@@H](O)[C@@H]1O`: the inhibition in assay [1], in assay [3], in assay [4], in assay [6] and in assay [5] was less than 50% each time.
For the compound `OC[C@@H]1NC[C@@H](O)[C@H](O)[C@@H]1O`, the inhibition in assay [1], in assay [4], in assay [6] and in assay [5] was less than 50% in each case. Also, the IC50 in assay [2] stood at 13 µM.
Consider `OC[C@@H]1NC[C@H](O)[C@H](O)[C@H]1O`, for which the inhibition in assay [1], in assay [3], in assay [4], in assay [6] and in assay [5] was less than 50% in each case.
